Columns and labels:
rPpAChE1 = target: T1, rPpAChE1 (Phlebotomus papatasi, UniProt M1F887); assay: biochemical
T1 construct: gene AChE; cell lysate assayed

CC(=O)SCC[N+](C)(C)C = assay: modified Ellman assay; format: biochemical, Phlebotomus papatasi

Compound	IC50 (rPpAChE1)	Km (CC(=O)SCC[N+](C)(C)C)
Nc1c2c(nc3ccccc13)CCCC2 [Tacrine]	67 nM	–
CNC(=O)Oc1cccc(C(C)(C)C)c1 [compound 2, 3-(tert-butyl)phenyl methylcarbamate]	36 nM	–
rPpAChE1 (Phlebotomus papatasi)	–	24 µM
CNC(=O)Oc1cnn(CC(C)C)c1 [compound 5, 1-isobutyl-1H-pyrazol-4-yl methylcarbamate]	76 nM	–
CC[n+]1c(-c2ccccc2)c2cc(N)ccc2c2ccc(N)cc21 [Ethidium Bromide]	17100 nM	–
CCC(C)n1cc(OC(=O)NC)cn1 (stereo not drawn) [compound 3, 1-(sec-butyl)-1H-pyrazol-4-yl methylcarbamate]	13 nM	–
CNC(=O)Oc1ccc2c(c1)[C@]1(C)CCN(C)[C@@H]1N2C [Eserine]	3.2 nM	–
CCOC(=O)CC(SP(=O)(OC)OC)C(=O)OCC (stereo not drawn) [Malaoxon]	4.36 nM	–
COc1cc2c3cc1Oc1cc(ccc1O)C[C@@H]1c4c(cc(OC)c(O)c4Oc4ccc(cc4)C[C@@H]3N(C)CC2)CC[N+]1(C)C [Tubocurarine]	143000 nM	–
CNC(=O)Oc1cccc2c1OC(C)(C)C2 [Carbofuran]	24 nM	–
CNC(=O)Oc1ccccc1OC(C)C [Propoxur]	220 nM	–
CNC(=O)Oc1cnn(CCC(C)C)c1 [compound 4, 1-isopentyl-1H-pyrazole-4-yl methylcarbamate]	75 nM	–

Reference: PMC4268798, “Acetylcholinesterase of the sand fly, Phlebotomus papatasi (Scopoli): construction, expression and biochemical properties of the G119S orthologous mutant” (Parasites & Vectors, 2014)
